In the NIST ThermoML archive (doi:10.1016/j.tca.2010.05.016):
Numbers after ± are expanded uncertainties.

Assay: mn = molality of the nth substance listed, in mol/kg
Conditions: 101 kPa, Liquid; for speed of sound: Vibrating Tube; for mass density: Vibrating tube method

NCC(=O)NCC(=O)NCC(=O)O [glycylglycylglycine] + O
speed of sound (288.15 K, m1 = 0.03587): 1470.6 ± 3.3 m/s
speed of sound (288.15 K, m1 = 0.04684): 1471.6 ± 3.3 m/s
speed of sound (288.15 K, m1 = 0.05855): 1473 ± 3.3 m/s
speed of sound (288.15 K, m1 = 0.06301): 1473.4 ± 3.3 m/s
speed of sound (288.15 K, m1 = 0.07743): 1475 ± 3.3 m/s
speed of sound (288.15 K, m1 = 0.09073): 1476.5 ± 3.3 m/s
speed of sound (288.15 K, m1 = 0.1016): 1477.7 ± 3.3 m/s
mass density (288.15 K, m1 = 0.03587): 1001.94 ± 0.042 kg/m3
mass density (288.15 K, m1 = 0.04684): 1002.79 ± 0.042 kg/m3
mass density (288.15 K, m1 = 0.05855): 1003.69 ± 0.043 kg/m3
mass density (288.15 K, m1 = 0.06301): 1004.03 ± 0.043 kg/m3
mass density (288.15 K, m1 = 0.07743): 1005.13 ± 0.044 kg/m3
mass density (288.15 K, m1 = 0.09073): 1006.13 ± 0.046 kg/m3
mass density (288.15 K, m1 = 0.1016): 1006.95 ± 0.046 kg/m3
speed of sound (293.15 K, m1 = 0.03587): 1486.7 ± 3.3 m/s
speed of sound (293.15 K, m1 = 0.04684): 1487.8 ± 3.3 m/s
speed of sound (293.15 K, m1 = 0.05855): 1489 ± 3.3 m/s
speed of sound (293.15 K, m1 = 0.06301): 1489.4 ± 3.3 m/s
speed of sound (293.15 K, m1 = 0.07743): 1490.8 ± 3.3 m/s
speed of sound (293.15 K, m1 = 0.09073): 1492.6 ± 3.3 m/s
speed of sound (293.15 K, m1 = 0.1016): 1493.4 ± 3.3 m/s
mass density (293.15 K, m1 = 0.03587): 1001 ± 0.041 kg/m3
mass density (293.15 K, m1 = 0.04684): 1001.85 ± 0.042 kg/m3
mass density (293.15 K, m1 = 0.05855): 1002.74 ± 0.043 kg/m3
mass density (293.15 K, m1 = 0.06301): 1003.07 ± 0.043 kg/m3
mass density (293.15 K, m1 = 0.07743): 1004.16 ± 0.044 kg/m3
mass density (293.15 K, m1 = 0.09073): 1005.15 ± 0.045 kg/m3
mass density (293.15 K, m1 = 0.1016): 1005.96 ± 0.046 kg/m3
speed of sound (298.15 K, m1 = 0.03587): 1500.8 ± 3.3 m/s
speed of sound (298.15 K, m1 = 0.04684): 1501.8 ± 3.3 m/s
speed of sound (298.15 K, m1 = 0.05855): 1503 ± 3.3 m/s
speed of sound (298.15 K, m1 = 0.06301): 1503.4 ± 3.3 m/s
speed of sound (298.15 K, m1 = 0.07743): 1504.8 ± 3.3 m/s
speed of sound (298.15 K, m1 = 0.09073): 1506 ± 3.3 m/s
speed of sound (298.15 K, m1 = 0.1016): 1507.3 ± 3.3 m/s
mass density (298.15 K, m1 = 0.03587): 999.808 ± 0.041 kg/m3
mass density (298.15 K, m1 = 0.04684): 1000.64 ± 0.041 kg/m3
mass density (298.15 K, m1 = 0.05855): 1001.52 ± 0.042 kg/m3
mass density (298.15 K, m1 = 0.06301): 1001.86 ± 0.042 kg/m3
mass density (298.15 K, m1 = 0.07743): 1002.93 ± 0.044 kg/m3
mass density (298.15 K, m1 = 0.09073): 1003.92 ± 0.045 kg/m3
mass density (298.15 K, m1 = 0.1016): 1004.73 ± 0.045 kg/m3
speed of sound (303.15 K, m1 = 0.03587): 1512.9 ± 3.3 m/s
speed of sound (303.15 K, m1 = 0.04684): 1514 ± 3.3 m/s
speed of sound (303.15 K, m1 = 0.05855): 1515.1 ± 3.3 m/s
speed of sound (303.15 K, m1 = 0.06301): 1515.5 ± 3.3 m/s
speed of sound (303.15 K, m1 = 0.07743): 1516.8 ± 3.3 m/s
speed of sound (303.15 K, m1 = 0.09073): 1518.4 ± 3.3 m/s
speed of sound (303.15 K, m1 = 0.1016): 1519.3 ± 3.3 m/s
mass density (303.15 K, m1 = 0.03587): 998.381 ± 0.042 kg/m3
mass density (303.15 K, m1 = 0.04684): 999.208 ± 0.042 kg/m3
mass density (303.15 K, m1 = 0.05855): 1000.08 ± 0.042 kg/m3
mass density (303.15 K, m1 = 0.06301): 1000.41 ± 0.042 kg/m3
mass density (303.15 K, m1 = 0.07743): 1001.54 ± 0.043 kg/m3
mass density (303.15 K, m1 = 0.09073): 1002.46 ± 0.044 kg/m3
mass density (303.15 K, m1 = 0.1016): 1003.26 ± 0.045 kg/m3
speed of sound (308.15 K, m1 = 0.03587): 1523.3 ± 3.3 m/s
speed of sound (308.15 K, m1 = 0.04684): 1524.3 ± 3.3 m/s
speed of sound (308.15 K, m1 = 0.05855): 1525.4 ± 3.3 m/s
speed of sound (308.15 K, m1 = 0.06301): 1525.8 ± 3.3 m/s
speed of sound (308.15 K, m1 = 0.07743): 1527.3 ± 3.3 m/s
speed of sound (308.15 K, m1 = 0.09073): 1528.5 ± 3.3 m/s
speed of sound (308.15 K, m1 = 0.1016): 1529.5 ± 3.3 m/s
mass density (308.15 K, m1 = 0.03587): 996.783 ± 0.043 kg/m3
mass density (308.15 K, m1 = 0.04684): 997.565 ± 0.042 kg/m3
mass density (308.15 K, m1 = 0.05855): 998.435 ± 0.042 kg/m3
mass density (308.15 K, m1 = 0.06301): 998.76 ± 0.042 kg/m3
mass density (308.15 K, m1 = 0.07743): 999.825 ± 0.042 kg/m3
mass density (308.15 K, m1 = 0.09073): 1000.79 ± 0.043 kg/m3
mass density (308.15 K, m1 = 0.1016): 1001.58 ± 0.044 kg/m3
